Measured values as given in US12213479B2, “Monoterpenoid/phenylpropanoid-containing compounds and methods of their making and use as herbicides” (KITTRICH CORPORATION, priority 2016, dated 2025).
Entries after “also recorded” stand apart in the source; their conditions may differ.

Tests used:
Wood sorrel = test: Foliar spray, wood sorrel; format: in vivo; details: 20 sprays of 1%; observed 2 days after exposure and later
Method: Wood sorrel on the ground of the greenhouse was also treated with active ingredient in order to better assess the effects of foliar treatments on multiple plant species. A patch of wood sorrel was (approximately 4′×3′) was treated with 20 sprays (mist setting) from a MAINStays ironing spray bottle. Effects of the spray were recorded 2 days after exposure.

soybeans = test: Pre-emergence assay, soybean; format: in vivo; details: for pre-emergent effect on soybeans (words): 1%, 3-weeks after application; for qualitative growth assessment, pre-emergence: Soy, soil treated with 40 ml of 1% solution 1 day after planting, 3 weeks after application
Method: (§1) Soybean plants were planted under 1 cm of potting soil and watered every 2-3 days as necessary. Plants were grown in pots (6″ wide×4.5″ deep) with approximately 800 mL of soil for each plant. Plants germinated approximately 3-5 days after being planted. Plants were grown in a greenhouse under a constant temperature and light environment (25±5° C., 12 hr: 12 hr light: dark cycle).
1-day after seeds/beans were planted, soil was drenched with 40 ml of formulation with 1% active ingredient. This was done to assess germination inhibition in the soil. […] Qualitative growth assessment was made by comparing the treated plants to the untreated controls.

[1] = system: Pigweed (Amaranthus palmeri); test: Weed soil drench assay, pigweed; format: in vivo; details: for Percentage mortality: Pigweed, 40 mL of 5% solution, soil drench; for chlorosis and phytotoxicity: pigweed, 40 ml of 5%, 2 days after application
Method: Pigweed plants were obtained from the wild in prairie fields in Iowa. Plants were carefully transplanted into pots (6″ wide×4.5″ deep) with approximately 800 mL of soil for each plant. Plants were maintained in a greenhouse under a constant temperature and light environment (25±5° C., 12 hr: 12 hr light: dark cycle). Plants were watered every 2-3 days as needed.
(§2) Formulations of the various active ingredients were created using the monoterpenoid derivatives, potassium hydroxide, and Triton-X 100™ to aid in the solvation of the active ingredient. Formulations included 5% active ingredient by weight (0.5-1 g/100 ml water), with a 1:1 molar ratio of potassium hydroxide used to aid in the solvation (135-269 mg/100 mL for both thymyloxyacetic acid and carvacryloxyacetic acid). […] Observations were performed 2 days and 3 weeks after soil drench to determine the effects of the treatments on the various types and stages of plants. Phytotoxicity is reported as percentage of total plants treated compared to a control treatment that was exposed to a similar formulation (without the active monoterpenoid derivatives).

[2] = system: Dandelion (Taraxacum officinale); test: Weed soil drench assay, dandelion; format: in vivo; details: for Percentage mortality: Dandelions, 40 mL of 5% solution, soil drench; for chlorosis and phytotoxicity: dandelions, 40 mL of 5%, 2 days after application
Method: (§3) Dandelion seeds were obtained from native prairie fields in Ames, IA. Individual seeds were sown for each pot (6″ wide×4.5″ deep) with approximately 800 mL of soil for each plant. Only plants that germinated were used for the study. Plants were treated 1-2 weeks post emergence. Plants were watered every 2-3 days as needed.
as §2

[3] = system: Giant Foxtail (Setaria faberi); test: Weed soil drench assay, giant foxtail; format: in vivo; details: for Percentage mortality: Giant Foxtail, 40 mL of 5% solution, soil drench; for chlorosis and phytotoxicity: giant foxtail, 40 mL of 5%, 2 days after application
Method: as §3, with “Giant foxtail” for “Dandelion”, “the Department of Agronomy at Iowa State University. Three” for “native prairie fields in Ames, IA. Individual”
as §2

corn seeds = test: Germination assay, corn seeds coated with compound; details: for corn seed germination at day 3: seed coating
Soybean plants = test: Foliar spray assay, soybean plants; format: in vivo; details: 1% foliar spray; for phytotoxic effects on soybean plants (words), foliar spray: 1-month old soybean plants, up to 14 days after exposure; for chlorosis / leaf death: soybean plants
Method: as §1, with “hr:12” for “hr: 12”, “light:dark” for “light: dark”, “cycle). Plants were grown until reaching 4 weeks old and were then used for the foliar spray experiment.” for “cycle).”
Formulations were made to include 1% thymyloxyacetic acid, 0.269% potassium hydroxide, and 0.25% Triton-X 100™. Soybean plants were sprayed with 10 mists from a MAINStays™ Ironing Spray bottle set to the mist setting. This corresponded to the minimum amount necessary to cause dripping from the leaves of the plants. […] Plants were placed under high intensity light (directly below greenhouse lamps) and low intensity light (not under lamp/ambient light environment). Light intensity was chosen as a factor for this experimental design. […] This effect is greatly diminished under low intensity light conditions. If thymyloxyacetic acid is causing phytotoxicity in the same mechanism of action as other plant terpenoids, there should be a drastic difference in the phytotoxicity among these different levels of light intensity.

[4] = system: Palmer Amaranth (Amaranthus palmeri); test: Toxicity assay (probit LC50), Palmer amaranth; format: in vivo
From the text: (§4) Palmer amaranth seeds were obtained from the Department of Agronomy at Iowa State University. Individual seeds were sown for each pot (1.5″ wide×3″ deep) with approximately 7.5 g of soil for each plot. Five seeds/plot were sown into numerous plots. After one month of germination, germinated plants were counted in each plot and this number was used for the total number of plants challenged per plot in the toxicity assessment
(§5) The total number of plants were counted in each plot in 24×6 hexagonal small plot planter tray. The number of germinated seeds in each plot was enumerated after one month, and for each plot this number was recorded and used as the total for each plot. Differing concentrations of thymyloxyacetic acid was applied in 5% Triton-X 100 and 1:1 molar ratio potassium hydroxide:thymyloxyacetic acid to aid in the solubility of the compound in water. Ten mL of solution was applied to each plot, and the mortality of the plants was assessed at 3 days and 2 weeks post application (for some treatments). Mortality at these time points were enumerated out of the total plants germinated in each plot at the beginning of the assay. At both time points, the total number of dead plants and total number of plants at the beginning of the assay were recorded for each observation. A Probit model was used to calculate the LC50 values for each of the compounds explored in this assay. A formulation control (with no active ingredient) was screened against a number of plants and factored into the final probit model. This formulation control had little-to-no effect by itself.

[5] = system: Waterhemp (Amaranthus tuberculatus); test: Toxicity assay (probit LC50), waterhemp; format: in vivo
From the text: as §4, with “Waterhemp seeds” for “Palmer amaranth seeds”, “seeds/plot was” for “seeds/plot were”, “toxicity assessment.” for “toxicity assessment”
as §5

Cc1ccc(C(C)C)cc1OCC(=O)O [carvacryloxyacetic acid, 2-(5-isopropyl-2-methylphenoxy)acetic acid]
phytotoxic effect on wood sorrel, foliar spray (Wood sorrel): Death followed quickly after 2 days post-exposure; also recorded: immediate and widespread chlorosis followed by relatively quick plant death
pre-emergent effect on soybeans (words) (soybeans): completely prevented from growing
pre-emergent effect on soybeans (words) (soybeans; listed as Carvacryloxyacetic acid): prevented the emergence of soybean plants entirely
qualitative growth assessment, pre-emergence (soybeans): XXX (plant death)
Percentage mortality ([1]; 2-days after treatment): 100%
Percentage mortality ([1]; 3-weeks after treatment): 100%
chlorosis and phytotoxicity [1]: significant chlorosis and phytotoxicity
Percentage mortality ([2]; 2-days after treatment): 100%
Percentage mortality ([2]; 3-weeks after treatment): 100%
chlorosis and phytotoxicity [2]: significant chlorosis and phytotoxicity
Percentage mortality ([3]; 2-days after treatment): 100%
Percentage mortality ([3]; 3-weeks after treatment): 100%
chlorosis and phytotoxicity [3]: significant chlorosis and phytotoxicity
corn seed germination at day 3 (corn seeds): some level of germination

Cc1ccc(C(C)C)c(OCC(=O)O)c1 [thymyloxyacetic acid, 2-(2-isopropyl-5-methylphenoxy)acetic acid]
phytotoxic effects on soybean plants (words), foliar spray (Soybean plants): significant chlorosis and wilting
phytotoxic effects on soybean plants (words), foliar spray (Soybean plants; listed as Thymyloxyacetic acid): significant phytotoxic effects
chlorosis (Soybean plants; High intensity light): ✓
leaf death (Soybean plants; High intensity light): ✓
chlorosis (Soybean plants; Low intensity light): ✓
leaf death (Soybean plants; Low intensity light): ✓
pre-emergent effect on soybeans (words) (soybeans): most susceptible
pre-emergent effect on soybeans (words) (soybeans; listed as Thymyloxyacetic acid): major inhibition of growth
qualitative growth assessment, pre-emergence (soybeans): − − −
Percentage mortality ([1]; 2-days after treatment): 100%
Percentage mortality ([1]; 3-weeks after treatment): 100%
chlorosis and phytotoxicity [1]: significant chlorosis and phytotoxicity
Percentage mortality ([2]; 2-days after treatment): 100%
Percentage mortality ([2]; 3-weeks after treatment): 100%
chlorosis and phytotoxicity [2]: significant chlorosis and phytotoxicity
Percentage mortality ([3]; 2-days after treatment): 100%
Percentage mortality ([3]; 3-weeks after treatment): 100%
chlorosis and phytotoxicity [3]: significant chlorosis and phytotoxicity
LC50 Value ([4]; Palmer Amaranth (Table 6)): 1700 ppm
Selective Toxicity Compared to Bluegrass ([4]; Palmer Amaranth compared to bluegrass): 2.06
LC50 Value ([4]; Palmer Amaranth, 2-week post application, probit): 1350 ppm
LC50 Value ([4]; Palmer Amaranth, 3-day post application, probit): 1700 ppm
LC50 Value ([5]; Waterhemp): 700 ppm
Selective Toxicity Compared to Bluegrass ([5]; Waterhemp compared to bluegrass): 5
inhibition of corn seed germination (corn seeds; seed coating 1% weight compound/weight seed, 3, 5, 7 days): second most significant inhibition
corn seed germination at day 3 (corn seeds): prevented any germination
